Data as given in patent US20260258035A1, “FIVE-MEMBERED AND SIX-MEMBERED NITROGEN-CONTAINING COMPOUND, AND INTERMEDIATE, PREPARATION METHOD AND USE THEREOF” (HANGZHOU SYNRX THERAPEUTICS BIOMEDICAL TECHNOLOGY CO., LTD., priority 2022, published 2026).
Where two headings read alike, the source gives them in different places.

Columns and labels:
[1] = tested on: HCC1806; assay: Cell viability assay (CellTiter-Glo); type: cell-based, Human; settings: HCC1806, 7 days, CellTiter-Glo, read-out: IC50 (nM) in cell viability assay
[2] = target: PARG (Homo sapiens, UniProt Q86W56); assay: Biochemical assay (PARG, TFMU-ADPr substrate)
Sequence of PARG (Q86W56 whole entry): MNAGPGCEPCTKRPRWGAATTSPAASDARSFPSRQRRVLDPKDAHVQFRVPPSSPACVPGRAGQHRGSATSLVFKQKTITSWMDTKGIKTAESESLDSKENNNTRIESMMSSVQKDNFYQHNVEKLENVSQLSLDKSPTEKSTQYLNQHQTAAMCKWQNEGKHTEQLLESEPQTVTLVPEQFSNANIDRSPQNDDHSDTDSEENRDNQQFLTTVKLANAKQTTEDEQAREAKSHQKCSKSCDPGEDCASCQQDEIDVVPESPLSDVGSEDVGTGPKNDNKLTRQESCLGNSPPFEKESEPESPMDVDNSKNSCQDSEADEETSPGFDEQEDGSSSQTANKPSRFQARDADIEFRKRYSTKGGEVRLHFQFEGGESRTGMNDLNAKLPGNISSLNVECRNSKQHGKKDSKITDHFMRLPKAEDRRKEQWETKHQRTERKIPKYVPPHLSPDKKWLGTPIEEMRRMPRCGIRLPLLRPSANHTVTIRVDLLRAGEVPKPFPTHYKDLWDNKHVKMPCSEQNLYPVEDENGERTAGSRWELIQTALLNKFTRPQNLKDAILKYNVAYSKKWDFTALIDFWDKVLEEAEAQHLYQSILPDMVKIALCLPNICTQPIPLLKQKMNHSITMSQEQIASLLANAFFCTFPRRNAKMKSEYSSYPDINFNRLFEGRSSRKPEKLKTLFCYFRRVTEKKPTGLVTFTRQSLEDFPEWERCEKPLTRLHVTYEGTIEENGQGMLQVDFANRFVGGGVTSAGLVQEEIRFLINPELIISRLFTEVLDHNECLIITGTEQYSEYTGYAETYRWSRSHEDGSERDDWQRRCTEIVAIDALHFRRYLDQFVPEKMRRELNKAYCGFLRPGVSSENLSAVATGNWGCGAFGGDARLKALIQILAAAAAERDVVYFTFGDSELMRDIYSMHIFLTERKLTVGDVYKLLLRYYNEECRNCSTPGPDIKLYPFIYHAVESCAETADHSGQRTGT

Molecule | IC50 ([1]; Homo sapiens, HCC1806, 168 h) | IC50 ([2]; 4 nM PARG, 66.2 uM TFMU-ADPr, 3 min at room temperature) | IC50 ([2]; PARG, TFMU-ADPr substrate) | IC50 [1]
CC(C)C(=O)N1CCN(c2cc(S(=O)(=O)NC3(C)CNC3)cn3c(-c4nnc(C(F)F)s4)ncc23)CC1 [Example 50, 3-(5-(difluoromethyl)-1,3,4-thiadiazol-2-yl)-8-(4-isobutyrylpiperazin-1-yl)-N-(3-methylazetidin-3-yl)imidazo[1,5-a]pyridine-6-sulfonamide] | > 30000 nM | > 1000 nM | – | –
CC1(NS(=O)(=O)c2cc(N3CCN(C(=O)C4CC(=O)N4)CC3)c3cnc(-c4nnc(C(F)(F)F)s4)n3c2)CC1 (stereo not drawn) [Example 343, N-(1-methylcyclopropyl)-8-(4-(4-oxoazetidine-2-carbonyl)piperazin-1-yl)-3-(5-(trifluoromethyl)-1,3,4-thiadiazol-2-yl)imidazo[1,5-a]pyridine-6-sulfonamide] | 852 nM | – | 5.41 nM | –
N#CC1(NS(=O)(=O)c2cc(N3CCN(C(=O)C4(OCC(=O)O)CC4)CC3)c3cnc(-c4nnc(C(F)F)s4)n3c2)CC1 [Example 381, 2-(1-(4-(6-(N-(1-cyanocyclopropyl)sulfamoyl)-3-(5-(difluoromethyl)-1,3,4-thiadiazol-2-yl)imidazo[1,5-a]pyridin-8-yl)piperazine-1-carbonyl)cyclopropoxy)acetic acid] | 3630 nM | – | 27.1 nM | –
CC(C)S(=O)(=O)N1CCN(c2cc(S(=O)(=O)NC3CC3)cn3c(-c4nnc(C(F)(F)F)s4)ncc23)CC1 [Example 215, N-cyclopropyl-8-(4-(isopropylsulfonyl)piperazin-1-yl)-3-(5-(trifluoromethyl)-1,3,4-thiadiazol-2-yl)imidazo[1,5-a]pyridine-6-sulfonamide] | 1500 nM | – | 69.2 nM | –
N#CC1(NS(=O)(=O)c2cc(N3CCN(C(=O)[C@H]4CCCN4)CC3)c3cnc(-c4nnc(C(F)(F)F)s4)n3c2)CC1 [Example 265, (R)-N-(1-cyanocyclopropyl)-8-(4-prolylpiperazin-1-yl)-3-(5-(trifluoromethyl)-1,3,4-thiadiazol-2-yl)imidazo[1,5-a]pyridine-6-sulfonamide] | 8000 nM | – | 158 nM | –
[2H]c1nc(-c2nnc(C(F)F)s2)n2cc(S(=O)(=O)NC3(C)COC3)cc(N3CCNC(COC)C3)c12 (stereo not drawn) [Example 158, 3-(5-(difluoromethyl)-1,3,4-thiadiazol-2-yl)-8-(3-(methoxymethyl)piperazin-1-yl)-N-(3-methyloxetan-3-yl)imidazo[1,5-a]pyridine-6-sulfonamide-1-d] | 1090 nM | – | 15.8 nM | –
CC1(NS(=O)(=O)c2cc(N3CCN(C4CC4)CC3)c3cnc(-c4nnc(C(F)F)s4)n3c2)COC1 [Example 364, 8-(4-cyclopropylpiperazin-1-yl)-3-(5-(difluoromethyl)-1,3,4-thiadiazol-2-yl)-N-(3-methyloxetan-3-yl)imidazo[1,5-a]pyridine-6-sulfonamide] | 791 nM | – | 41.4 nM | –
CC1(NS(=O)(=O)c2cc(N3CCN(C(=O)C4CNC4)CC3)c3cnc(-c4nnc(C(F)(F)F)s4)n3c2)CC1 [Example 277, 8-(4-(azetidine-3-carbonyl)piperazin-1-yl)-N-(1-methylcyclopropyl)-3-(5-(trifluoromethyl)-1,3,4-thiadiazol-2-yl)imidazo[1,5-a]pyridine-6-sulfonamide] | 4470 nM | – | 25.1 nM | –
N-(1-cyanocyclopropyl)-8-(4-(oxetane-3-carbonyl)piperazin-1-yl)-3-(5-(trifluoromethyl)-1,3,4-thiadiazol-2-yl)imidazo[1,5-a]pyridine-6-sulfonamide [Example 294] | – | – | 12 nM | 110 nM
COCC1CN(c2cc(S(=O)(=O)NC3(C)COC3)cn3c(-c4nnc(C(F)(F)F)s4)cnc23)CCN1 (stereo not drawn) [Example 360, 8-(3-(methoxymethyl)piperazin-1-yl)-N-(3-methyloxetan-3-yl)-3-(5-(trifluoromethyl)-1,3,4-thiadiazol-2-yl)imidazo[1,2-a]pyridine-6-sulfonamide] | 637 nM | – | 36.3 nM | –
CC1(O)CC2(CCN(c3cc(S(=O)(=O)NC4(C#N)CC4)cn4c(-c5nnc(C(F)(F)F)s5)ncc34)CC2)C1 [Example 242, N-(1-cyanocyclopropyl)-8-(2-hydroxy-2-methyl-7-azaspiro[3.5]nonan-7-yl)-3-(5-(trifluoromethyl)-1,3,4-thiadiazol-2-yl)imidazo[1,5-a]pyridine-6-sulfonamide] | 2980 nM | – | 52.5 nM | –
N#CC1(NS(=O)(=O)c2cc(N3CCN(C(=O)C4CC(N)C4)CC3)c3cnc(-c4nnc(C(F)(F)F)s4)n3c2)CC1 (stereo not drawn) [Example 273, 8-(4-(3-aminocyclobutane-1-carbonyl)piperazin-1-yl)-N-(1-cyanocyclopropyl)-3-(5-(trifluoromethyl)-1,3,4-thiadiazol-2-yl)imidazo[1,5-a]pyridine-6-sulfonamide] | 5940 nM | – | 1.91 nM | –
CN(C)CCC(=O)N1CCN(c2cc(S(=O)(=O)NC3(C#N)CC3)cn3c(-c4nnc(C(F)(F)F)s4)ncc23)CC1 [Example 249, N-(1-cyanocyclopropyl)-8-(4-(3-(dimethylamino)propanoyl)piperazin-1-yl)-3-(5-(trifluoromethyl)-1,3,4-thiadiazol-2-yl)imidazo[1,5-a]pyridine-6-sulfonamide] | 7320 nM | – | 115 nM | –

More lines, main results first:

IC50 ([1]; Homo sapiens, HCC1806, 168 h) | IC50 ([2]; 4 nM PARG, 66.2 uM TFMU-ADPr, 3 min at room temperature) | IC50 ([2]; PARG, TFMU-ADPr substrate) | Molecule | IC50 [1]
370 nM | – | 100 nM | N#CC1(NS(=O)(=O)c2cc(N3CCN(C(=O)C(O)C(F)(F)F)CC3)c3cnc(-c4nnc(C(F)F)s4)n3c2)CC1 (stereo not drawn) [Example 261, N-(1-cyanocyclopropyl)-3-(5-(difluoromethyl)-1,3,4-thiadiazol-2-yl)-8-(4-(3,3,3-trifluoro-2-hydroxypropanoyl)piperazin-1-yl)imidazo[1,5-a]pyridine-6-sulfonamide] | –
360 nM | – | 36.3 nM | C[C@@H]1CN(c2cc(S(=O)(=O)NC3(C#N)CC3)cn3c(-c4nnc(C(F)F)s4)cnc23)CCN1C(=O)C1(C)CC1 [Example 204, (R)-N-(1-cyanocyclopropyl)-3-(5-(difluoromethyl)-1,3,4-thiadiazol-2-yl)-8-(3-methyl-4-(1-methylcyclopropane-1-carbonyl)piperazin-1-yl)imidazo[1,2-a]pyridine-6-sulfonamide] | –
38 nM | – | < 0.1 nM | COC1(C(=O)N2CCN(c3cc(S(=O)(=O)NC4(C)CC4)cn4c(-c5nnc(C(F)F)s5)ncc34)CC2)CN(C)C1 [Example 310, 3-(5-(difluoromethyl)-1,3,4-thiadiazol-2-yl)-8-(4-(3-methoxy-1-methylazetidine-3-carbonyl)piperazin-1-yl)-N-(1-methylcyclopropyl)imidazo[1,5-a]pyridine-6-sulfonamide] | –
458 nM | – | 21.9 nM | COC[C@H]1CN(c2cc(S(=O)(=O)NC3(C)COC3)cn3c(-c4nnc(C(F)F)s4)nc(Cl)c23)C[C@H](C)N1 [Example 403, 1-chloro-3-(5-(difluoromethyl)-1,3,4-thiadiazol-2-yl)-8-((3R,5S)-3-(methoxymethyl)-5-methylpiperazin-1-yl)-N-(3-methyloxetan-3-yl)imidazo[1,5-a]pyridine-6-sulfonamide] | –
151 nM | – | 14.5 nM | CO[C@H]1C[C@H](C(=O)N2CCN(c3cc(S(=O)(=O)NC4(C)CC4)cn4c(-c5nnc(C(F)(F)F)s5)ncc34)CC2)C1 [Example 290, 8-(4-((1r,3r)-3-methoxycyclobutane-1-carbonyl)piperazin-1-yl)-N-(1-methylcyclopropyl)-3-(5-(trifluoromethyl)-1,3,4-thiadiazol-2-yl)imidazo[1,5-a]pyridine-6-sulfonamide] | –
70 nM | – | 3.86 nM | CC1(NS(=O)(=O)c2cc(N3CCN(C(=O)C4CCO4)CC3)c3cnc(-c4nnc(C(F)(F)F)s4)n3c2)CC1 (stereo not drawn) [Example 304, N-(1-methylcyclopropyl)-8-(4-(oxetane-2-carbonyl)piperazin-1-yl)-3-(5-(trifluoromethyl)-1,3,4-thiadiazol-2-yl)imidazo[1,5-a]pyridine-6-sulfonamide] | –
297 nM | – | 3.04 nM | CC1(NS(=O)(=O)c2cc(N3CCO[C@H](CO)C3)c3cnc(-c4nnc(C(F)F)s4)n3c2)CC1 [Example 342, (S)-3-(5-(difluoromethyl)-1,3,4-thiadiazol-2-yl)-8-(2-(hydroxymethyl)morpholino)-N-(1-methylcyclopropyl)imidazo[1,5-a]pyridine-6-sulfonamide] | –
435 nM | – | 20.9 nM | N#CC1(NS(=O)(=O)c2cc(N3CCN(C(=O)[C@H]4CCCO4)CC3)c3cnc(-c4nnc(C(F)(F)F)s4)n3c2)CC1 [Example 303, (R)-N-(1-cyanocyclopropyl)-8-(4-(tetrahydrofuran-2-carbonyl)piperazin-1-yl)-3-(5-(trifluoromethyl)-1,3,4-thiadiazol-2-yl)imidazo[1,5-a]pyridine-6-sulfonamide] | –
6.02 nM | – | < 0.1 nM | COC1(C(=O)N2CCN(c3cc(S(=O)(=O)NC4(C)CC4)cn4c(-c5nnc(C(F)F)s5)ncc34)CC2)CN(CCF)C1 [Example 312, 3-(5-(difluoromethyl)-1,3,4-thiadiazol-2-yl)-8-(4-(1-(2-fluoroethyl)-3-methoxyazetidine-3-carbonyl)piperazin-1-yl)-N-(1-methylcyclopropyl)imidazo[1,5-a]pyridine-6-sulfonamide] | –
107 nM | – | 0.38 nM | COC1(C(=O)N2CCN(c3cc(S(=O)(=O)NC4(C#N)CC4)cn4c(-c5nnc(C(F)(F)F)s5)ncc34)CC2)CC1 [Example 228, N-(1-cyanocyclopropyl)-8-(4-(1-methoxycyclopropane-1-carbonyl)piperazin-1-yl)-3-(5-(trifluoromethyl)-1,3,4-thiadiazol-2-yl)imidazo[1,5-a]pyridine-6-sulfonamide] | –
332 nM | – | 15.8 nM | CC(C)OCC1CN(c2cc(S(=O)(=O)NC3(C)COC3)cn3c(-c4nnc(C(F)F)s4)nc(Cl)c23)CCN1 (stereo not drawn) [Example 137, 1-chloro-3-(5-(difluoromethyl)-1,3,4-thiadiazol-2-yl)-8-(3-(isopropoxymethyl)piperazin-1-yl)-N-(3-methyloxetan-3-yl)imidazo[1,5-a]pyridine-6-sulfonamide] | –
